Assay results from Sander's compilation of Henry's law constants (doi:10.1016/1352-2310(94)00256-k).

Experiment: Henry solubility constant Hcp at 298.15 K (mol/(m3 Pa))
Conditions: reference: Dewulf et al. (1995)

Row | Compound | Henry solubility constant Hcp
1 | CCc1ccccc1 [ethylbenzene] | 0.0015
2 | Cc1cccc(C)c1 [1,3-dimethylbenzene] | 0.0016
3 | ClC(Cl)(Cl)Cl [tetrachloromethane] | 0.00038
4 | CC(Cl)(Cl)Cl [1,1,1-trichloroethane] | 0.00067
5 | ClC=C(Cl)Cl [trichloroethene] | 0.0012
6 | Cc1ccccc1 [methylbenzene] | 0.0018
7 | Cc1ccc(C)cc1 [1,4-dimethylbenzene] | 0.0017
8 | ClC(Cl)=C(Cl)Cl [tetrachloroethene] | 0.00069
9 | Cc1ccccc1C [1,2-dimethylbenzene] | 0.0024
10 | c1ccccc1 [benzene] | 0.0021
